We go through 32 compounds from patent US10329282B2, “Rho-associated protein kinase inhibitor, pharmaceutical composition comprising the same, as well as preparation method and use thereof” (Beijing Tide Pharmaceutical Co., Ltd., priority 2017, dated 2019).

The experiment concerns the target ROCK2 (Homo sapiens (Human), UniProt O75116). The experiment in a line: ROCK2 kinase IC50 assay (CISBIO HTRF KinEASE-STK S2 kit). The format is biochemical. To be noted: ROCK2 from Carna Biosciences, 2 h incubation at room temperature. How it is done:
The kinase IC50 was determined by a commercialized CISBIO kinase detection kit, HTRF KinEASE-STK S2 kit (62ST2PEC). ROCK2 (01-119) employed in the reaction was purchased from Carna Biosciences.
Before the assay, the following working solutions as needed were formulated with corresponding reagents according to the instruction of the kinase detection kit: 1×kinase buffer, 5×STK-52 substrate working solution (1.5 μM) and 5×ATP working solution (1.5 μM), 5×ROCK2 kinase working solution, 4×Streptavidin-XL665 working solution, and 4×STK-Ab-Cryptate 2 detection solution. Then the assay was performed according to the following procedure.
A solution of a compound at a concentration of 10000 nM was prepared with the 1×kinase buffer containing 2.5% DMSO. Gradient dilution of the solution of the compound was performed with the kinase buffer containing DMSO, so as to obtain solutions of a test compound at 9 different concentrations. In addition to wells of test compounds, a positive well (containing all the reagents except the compound) and a negative well (containing all the reagents except the test compound and kinase) were set. Except for the control wells (positive and negative wells), a solution of a test compound (4 μL) was added to each of the reaction wells, and a solution of 2.5% DMSO was added to the control wells. Then the substrate (2 μM, i.e., 2 μL 5×STK-S2 substrate working solution) was added to each of the reaction wells. The 5×ROCK2 kinase working solution (2 μL, containing 1.4 ng ROCK2 kinase) was added to each of the reaction wells except for the negative well, the volume of which was made up with the 1×kinase buffer (2 μL). The 5×ATP working solution (2 μL) was added to each of the reaction wells, and the mixtures were incubated at room temperature for 2 hours. After the kinase reaction was complete, the 4×Streptavidin-XL665 working solution was added to each of the reaction wells, the solutions were mixed, followed by immediate addition of the 4×STK-Ab-Cryptate 2 detection solution (5 μL), and the mixtures were incubated at room temperature for 1 hour. The fluorescence signal was read on ENVISION (Perkinelmer) (excitation wavelength: 320 nm, and emission wavelength: 665 nm and 615 nm). The inhibitory rate in each well was calculated based on the fluorescence intensity value: ER (Emission Ratio)=(fluorescence intensity at 665 nm/fluorescence intensity at 615 nm); inhibitory rate=(ERpositive−ERtest compound) (ERpositive−ERnegative)*100%. Curves were plotted and fitted to obtain the median inhibitory concentration (IC50) of each teat compound with the PRISM 5.0 software.
On the technique in general: TR-FRET usually uses a lanthanide donor and a delayed reading to cut background.

ROCK2, sequence (O75116 1-553): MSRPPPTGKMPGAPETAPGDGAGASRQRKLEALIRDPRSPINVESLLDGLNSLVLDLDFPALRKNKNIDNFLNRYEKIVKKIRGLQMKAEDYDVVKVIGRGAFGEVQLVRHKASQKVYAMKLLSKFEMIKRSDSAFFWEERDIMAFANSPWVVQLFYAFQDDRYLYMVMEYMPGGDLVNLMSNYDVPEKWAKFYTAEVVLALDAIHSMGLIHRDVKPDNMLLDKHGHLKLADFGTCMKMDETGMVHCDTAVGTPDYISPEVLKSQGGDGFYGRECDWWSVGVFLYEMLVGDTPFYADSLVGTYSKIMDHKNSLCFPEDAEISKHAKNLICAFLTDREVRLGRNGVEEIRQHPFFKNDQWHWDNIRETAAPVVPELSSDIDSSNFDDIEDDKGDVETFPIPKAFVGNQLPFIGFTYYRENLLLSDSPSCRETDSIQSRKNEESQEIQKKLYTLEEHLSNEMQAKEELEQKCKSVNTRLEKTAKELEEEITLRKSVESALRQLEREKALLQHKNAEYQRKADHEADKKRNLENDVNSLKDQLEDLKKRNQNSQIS

A word on the IC50: it is the concentration needed to halve the response being measured. As for `CN(C)C(=O)c1cc2ccc(-c3nccc(Nc4ccc(-c5cn[nH]c5)cc4)n3)cc2[nH]1` [TDI01294, 6-(4-((4-(1H-pyrazol-4-yl)phenyl)amino)pyrimidin-2-yl)-N,N-dimethyl-1H-indole-2-carboxamide], the 50% inhibitory concentration (IC50) is 0.352 µM. The figure for `O=C(c1cc2ccc(-c3nccc(Nc4ccc(-c5cn[nH]c5)cc4)n3)cc2[nH]1)N1CCOCC1` [TDI01331, (6-(4-((4-(1H-pyrazol-4-yl)phenyl)amino)pyrimidin-2-yl)-1H-indol-2-yl)(morpholino)methanone] is 0.26 µM; for `CCNC(=O)N1Cc2ccc(-c3nccc(Nc4ccc(-c5cn[nH]c5)cc4)n3)cc2C1` [TDI01411, 5-(4-((4-(1H-pyrazol-4-yl)phenyl)amino)pyrimidin-2-yl)-N-ethylisoindoline-2-carboxamide] it is 0.258 µM.

The compound `CC(C)NC(=O)c1c[nH]c2ccc(-c3nccc(Nc4ccc5[nH]ncc5c4)n3)cc12` [TDI01285, 5-(4-((1H-indazol-5-yl)amino)pyrimidin-2-yl)-N-isopropyl-1H-indole-3-carboxamide] returned an IC50 of 0.116 µM. For `CN(CCC#N)C(=O)c1cc2ccc(-c3nccc(Nc4ccc(-c5cn[nH]c5)cc4)n3)cc2[nH]1` [TDI01442] the value was 0.305 µM; for `O=C(c1cc2ccc(-c3nccc(Nc4ccc(-c5cn[nH]c5)cc4)n3)cc2[nH]1)N1CCOC[C@H]1CO` [TDI01853, (R)-(6-(4-((4-(1H-pyrazol-4-yl)phenyl)amino)pyrimidin-2-yl)-1H-indol-2-yl)(3-(hydroxymethyl)morpholino)methanone], 0.275 µM.

`O=C(Nc1ccncc1)c1cc2ccc(-c3nccc(Nc4ccc(-c5cn[nH]c5)cc4)n3)cc2[nH]1` [TDI01363, 6-(4-((4-(1H-pyrazol-4-yl)phenyl)amino)pyrimidin-2-yl)-N-(pyridin-4-yl)-1H-indole-2-carboxamide] came in with a half-maximal inhibitory concentration (IC50) of 0.104 µM.

Consider `CC(C)NC(=O)c1cc2ccc(-c3nc(Nc4ccc5[nH]ncc5c4)c4ccccc4n3)cc2[nH]1` [TDI01128, 6-(4-((1H-indazol-5-yl)amino)quinazolin-2-yl)-N-isopropyl-1H-indole-2-carboxamide], for which 0.145 µM corresponded to half-maximal inhibition (IC50).

The compound `CN1CCC(NC(=O)c2cc3ccc(-c4nccc(Nc5ccc6[nH]ncc6c5)n4)cc3s2)CC1` [TDI01114, 6-(4-((1H-indazol-5-yl)amino)pyrimidin-2-yl)-N-(1-methylpiperidin-4-yl)benzo[b]thiophene-2-carboxamide] displayed an IC50 of 0.157 µM.

Turning to `O=C(Nc1ccncn1)c1cc2ccc(-c3nccc(Nc4ccc5[nH]ncc5c4)n3)cc2[nH]1` [TDI01161, 6-(4-((1H-indazol-5-yl)amino)pyrimidin-2-yl)-N-(pyrimidin-4-yl)-1H-indole-2-carboxamide], the IC50 is 0.21 µM. The IC50 values of the last two compounds are within 1.5-fold of each other. The figure for `CN1CCC(n2cc(NC(=O)c3cc4ccc(-c5nccc(Nc6ccc7[nH]ncc7c6)n5)cc4[nH]3)cn2)CC1` [TDI01316, 6-(4-((1H-indazol-5-yl)amino)pyrimidin-2-yl)-N-(1-(1-methylpiperidin-4-yl)-1H-pyrazol-4-yl)-1H-indole-2-carboxamide] is 0.087 µM; for `COc1ccc(NC(=O)c2cc3ccc(-c4nccc(Nc5ccc6[nH]ncc6c5)n4)cc3[nH]2)cn1` [TDI01315, 6-(4-((1H-indazol-5-yl)amino)pyrimidin-2-yl)-N-(6-methoxypyridin-3-yl)-1H-indole-2-carboxamide] it is 0.126 µM; for `O=C(Nc1ccncc1I)c1cc2ccc(-c3nccc(Nc4ccc(-c5cn[nH]c5)cc4)n3)cc2[nH]1` [TDI01829C] it is 0.097 µM.

Compound `CN(C)c1ccc(NC(=O)c2cc3ccc(-c4nccc(Nc5ccc6[nH]ncc6c5)n4)cc3[nH]2)cn1` [TDI01221, 6-(4-((1H-indazol-5-yl)amino)pyrimidin-2-yl)-N-(6-(dimethylamino)pyridin-3-yl)-1H-indole-2-carboxamide] gave an IC50 of 0.091 µM. `O=C(Nc1ccncc1)c1cc2ccc(-c3nccc(Nc4ccc5[nH]ncc5c4)n3)cc2[nH]1` [TDI01153, 6-(4-((1H-indazol-5-yl)amino)pyrimidin-2-yl)-N-(pyridin-4-yl)-1H-indole-2-carboxamide]: the IC50 was found to be 0.016 µM.

`N#Cc1cnccc1NC(=O)c1cc2ccc(-c3nccc(Nc4ccc(-c5cn[nH]c5)cc4)n3)cc2[nH]1` [TDI01829B] registered a 50% inhibitory concentration (IC50) of 0.082 µM. For `CN(C(=O)c1cc2ccc(-c3nccc(Nc4ccc(-c5cn[nH]c5)cc4)n3)cc2[nH]1)C1CCNC1` (centres unmarked) [TDI01345, 6-(4-((4-(1H-pyrazol-4-yl)phenyl)amino)pyrimidin-2-yl)-N-methyl-N-(pyrrolidin-3-yl)-1H-indole-2-carboxamide] the value was 0.333 µM; for `O=C(Nc1ccncc1Cl)c1cc2ccc(-c3nccc(Nc4ccc5[nH]ncc5c4)n3)cc2[nH]1` [TDI01290, 6-(4-((1H-indazol-5-yl)amino)pyrimidin-2-yl)-N-(3-chloropyridin-4-yl)-1H-indole-2-carboxamide], 0.046 µM. For `O=C(c1cc2ccc(-c3nccc(Nc4ccc(-c5cn[nH]c5)cc4)n3)cc2[nH]1)N1CC(C(F)F)C1` [TDI01435] the value was 0.028 µM; for `CC(C)NC(=O)c1cc2ccc(-c3nccc(Nc4ccc(-c5cn[nH]c5)cc4)n3)cc2[nH]1` [TDI01280, 6-(4-((4-(1H-pyrazol-4-yl)phenyl)amino)pyrimidin-2-yl)-N-isopropyl-1H-indole-2-carboxamide], 0.094 µM; for `CN1CCC(NC(=O)c2cc3ccc(-c4nccc(Nc5ccc(-c6cn[nH]c6)cc5)n4)cc3[nH]2)C1` (centres unmarked) [TDI01339, 6-(4-((4-(1H-pyrazol-4-yl)phenyl)amino)pyrimidin-2-yl)-N-(1-methylpyrrolidin-3-yl)-1H-indole-2-carboxamide], 0.147 µM.

With `O=C(Nc1cn[nH]c1)c1cc2ccc(-c3nccc(Nc4ccc5[nH]ncc5c4)n3)cc2[nH]1` [TDI01199, 6-(4-((1H-indazol-5-yl)amino)pyrimidin-2-yl)-N-(1H-pyrazol-4-yl)-1H-indole-2-carboxamide], the IC50 worked out at 0.03 µM. The figure for `CC(C)OC(=O)c1cc2ccc(-c3nccc(Nc4ccc(-c5cn[nH]c5)cc4)n3)cc2[nH]1` [TDI01299, isopropyl 6-(4-((4-(1H-pyrazol-4-yl)phenyl)amino)pyrimidin-2-yl)-1H-indole-2-carboxylate] is 0.463 µM; for `CN(C(=O)c1cc2ccc(-c3nccc(Nc4ccc(-c5cn[nH]c5)cc4)n3)cc2[nH]1)C1COC1` [TDI01344, 6-(4-((4-(1H-pyrazol-4-yl)phenyl)amino)pyrimidin-2-yl)-N-methyl-N-(oxetan-3-yl)-1H-indole-2-carboxamide] it is 0.097 µM. For `CN1CCN(CC(=O)n2ccc3ccc(-c4nccc(Nc5ccc6[nH]ncc6c5)n4)cc32)CC1` [TDI01230, 1-(6-(4-((1H-indazol-5-yl)amino)pyrimidin-2-yl)-1H-indol-1-yl)-2-(4-methylpiperazin-1-yl)ethan-1-one] the value was 0.109 µM. In the case of `CC(NC(=O)c1cc2ccc(-c3nccc(Nc4ccc5[nH]ncc5c4)n3)cc2[nH]1)c1ccccc1` (centres unmarked) [TDI01140, 6-(4-((1H-indazol-5-yl)amino)pyrimidin-2-yl)-N-(1-phenylethyl)-1H-indole-2-carboxamide], half-maximal inhibition (IC50) required 0.109 µM.

In turn, `CNC(=O)c1cc2ccc(-c3nccc(Nc4ccc5[nH]ncc5c4)n3)cc2s1` [TDI01109, 6-(4-((1H-indazol-5-yl)amino)pyrimidin-2-yl)-N-methylbenzo[b]thiophene-2-carboxamide] yielded an IC50 of 0.447 µM. Consider `CN1CCN(c2ccc(NC(=O)c3cc4ccc(-c5nccc(Nc6ccc7[nH]ncc7c6)n5)cc4[nH]3)cc2)CC1` [TDI01131, 6-(4-((1H-indazol-5-yl)amino)pyrimidin-2-yl)-N-(4-(4-methylpiperazin-1-yl)phenyl)-1H-indole-2-carboxamide], for which the concentration for half-maximal inhibition (IC50) is 0.101 µM. The figure for `O=C(c1cc2ccc(-c3nccc(Nc4ccc(-c5cn[nH]c5)cc4)n3)cc2[nH]1)N1CC(C(F)(F)F)C1` [TDI01433] is 0.013 µM. Consider `CN(C(=O)c1cc2ccc(-c3nccc(Nc4ccc(-c5cn[nH]c5)cc4)n3)cc2[nH]1)C1CCC1` [TDI01420], for which inhibition was half-maximal at 0.477 µM (IC50).

On to `CC(C)NC(=O)c1cc2ccc(-c3nccc(Nc4ccc5[nH]ncc5c4)n3)cc2s1` [TDI01104, 6-(4-((1H-indazol-5-yl)amino)pyrimidin-2-yl)-N-isopropylbenzo[b]thiophene-2-carboxamide], for which the IC50 was 0.071 µM. Compared with the last compound, the IC50 is about 6.7-fold lower. For the compound `O=C(Nc1ccncc1Cl)c1cc2ccc(-c3nccc(Nc4ccc(-c5cn[nH]c5)cc4)n3)cc2[nH]1` [TDI01354, 6-(4-((4-(1H-pyrazol-4-yl)phenyl)amino)pyrimidin-2-yl)-N-(3-chloropyridin-4-yl)-1H-indole-2-carboxamide], 0.254 µM corresponded to half-maximal inhibition (IC50).
